From US20040019018A1, “Rigid pyrrolidone modulators of pkc” (priority 2003, published 2004)

Tests used:
soluble APPα (sAPPα) = assay: Secretion of soluble APPα from human fibroblasts (Example 15); format: cell-based; conditions: 10-20 μM, 2 hours
Description: Human fibroblasts from Alzheimer's patients (AD, cell line AG06848) or age-matched controls (AC, cell line AG07141) were grown to near confluence in DMEM containing 10% fetal bovine serum. On the day of the experiments, cells were rinsed twice with DMEM with no serum and incubated with the same […] for 2 hours at 37° C., 5% CO2. Cells were incubated for 2 additional hours with different concentrations of the drugs or equal volume of DMSO vehicle as control. The medium was collected and centrifuged at 1000 rpm to remove cell debris. Proteins were precipitated by addition of equal volume of 20% ice-cold tricholoroacetic acid (TCA) and incubation on ice for 60 minutes. The protein pellets were washed with ice-cold acetone and centrifuged for 30 minutes at 20,000 g for 30 minutes and dried overnight. Pellets were dissolved in electrophoresis buffer and proteins corresponding to the same concentration of protein were separated by SDS-PAGE and transferred to PVDF membranes according to the manufacturer's instructions. After electrophoresis, the membranes were blocked with Blotto and incubated overnight with a monoclonal antibody 6E10 (Synetek) that recognizes the APPα. After incubation with the secondary antibody, alkaline phosphatase anti-mouse IgG (Jackson's Laboratories), the membranes were developed using an alkaline phosphatase kit (BioRad) as per the manufacturer's instructions.

PKC catalytic subunit = assay: Translocation of PKC catalytic subunit to the membrane fraction in human fibroblasts (Western blot); format: cell-based; conditions: 15 min treatment, preliminary results
Description: A growing list of evidence implicated that protein kinase C (PKC) activation can increase the rate of the non-amyloidogenic, i.e. α-secretase processing in vitro.
Human fibroblasts were grown to confluence in 100 mm tissue culture dishes. On the day of the experiment, cells were rinsed twice with serum-free Dulbecco's modified Eagle's medium (DMEM) and incubated in the same medium for 2 hours. Cells were treated with the drugs above, or DMSO vehicle as control, for 15 min. The cells were then rinsed twice with ice-cold phosphate buffered saline (PBS), scraped in PBS, and collected by centrifugation. The pellets were suspended in homogenization buffer containing: 20 mM Tris-HCl, pH 7.5, 2 mM EDTA, 2 mM EGTA, 5 mM DTT, 0.32 M sucrose, 2 mM PMSF, […] aprotinin, and 20 µg/ml leupeptin. Homogenates were immersed in liquid nitrogen thawed, and centrifuged at 12,000 g for 20 min, and supernatants were used as the cytosolic fraction (C). The pellets were homogenized in the same buffer containing 1.0% Triton X-100, incubated on ice for 45 min, and centrifuged at 12,000 g for 30 min and the supernatants were used as the membrane fractions (M). After protein determination, equal amounts of proteins (approx. […]) were mixed with electrophoresis buffer, boiled for 5 min, and separated on 8% SDS-PAGE, and electrophoretically transferred to PVDF membranes. […]

## CCCCCCCCC#Cc1ccc2c(c1)C(C)(C(C)C)C1C(=O)NC(CO)C21 [Compound 1, (3S, 8R, 9S, 10S)-6-(dec-1′-ynyl)-3-hydroxymethyl-8-isopropyl-8-methyl-3,3a,8,8a-tetrahydro-2H-2-aza-cyclopenta[a]inden-1-one]
Soluble APPα (sAPPα)
  secretion of soluble APPα (sAPPα): increased the secretion of soluble APPα (sAPPα) significantly
PKC catalytic subunit
  translocation of PKC catalytic subunit from the cytosolic to the membrane fractions (activation): able to cause the translocation
